Earlier results, collected in US20230138262A1, “FAST-DISINTEGRATING SOLID HERBICIDE COMPOSITION AND THE USE THEREOF” (Rotam Agrochem International Company Limited, priority 2021, published 2023).

What was measured:
corn = details: in vivo

Cc1c(C(=O)c2cnn(C)c2O)ccc(S(C)(=O)=O)c1C1=NOCC1 [Topramezone]
Time to appearance of albino toxication symptoms in overground part of weeds after application (sensitive weeds; after application): 2 to 5 days | Time from application to death of weeds (sensitive weeds; depending on weather and environment): 10 to 15 days | Safety to corn (corn): safe to corn
